According to patent US11267814B2, “Compounds for bone growth” (OsteoQC Inc., priority 2013, dated 2022):
Structures can show the parent of a compound that is named as a salt.

What was measured:
sclerostin = target: T1, sclerostin (Homo sapiens, UniProt Q9BQB4); assay: Modulation of sclerostin/Wnt activity (sclerostin inhibition assay): restoring Wnt3a signaling in the presence of sclerostin; type: cell-based; details: IC100 class; Wnt3a signaling in human embryonic cells in presence of sclerostin
T1 construct: host or cells: human embryonic cells (reporter cells)
T1 sequence (Q9BQB4 24-213): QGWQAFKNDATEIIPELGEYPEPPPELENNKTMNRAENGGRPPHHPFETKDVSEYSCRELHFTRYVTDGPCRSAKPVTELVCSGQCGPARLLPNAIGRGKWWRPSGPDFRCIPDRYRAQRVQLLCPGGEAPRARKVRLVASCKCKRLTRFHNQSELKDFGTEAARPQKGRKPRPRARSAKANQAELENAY

hERG potassium channel = target: T2, hERG potassium channel (Homo sapiens, UniProt Q12809); assay: hERG automated patch clamp assay; type: cell-based; details: inhibition of hERG tail current, 5 minutes at room temperature, CHO-K1 cells stably expressing hERG
T2 construct: expressed in transfected cells; host or cells: CHO-K1
Description: One major type of cardiovascular toxicity associated with pharmaceutical drugs is caused by drug effects on cardiac ion channels like hERG. Drug-induced inhibition of hERG results in a prolonged QT interval, which can lead to a life-threatening ventricular arrhythmia. Therefore, the inhibitory effect of compounds described in Examples 1-46 on the hERG potassium channel was evaluated using an automated patch clamp assay as described in Mathes, C. (2006) Expert Opin. Ther. Targets, 10 (2): 319-327. CHO-K1 cells stably expressing hERG channels were used.

[1] = system: MC3T3-E1 (mouse calvarial) osteoblast cells; assay: Rescue of sclerostin inhibition of mineralization (total calcium); type: cell-based; details: Mus musculus, MC3T3-E1; IC100 class; calcium concentration, MC3T3 osteoblast cells treated with sclerostin; read-out: Sclerostin Inhibition of Mineralization; improvement over sclerostin alone.
Description: Mineralization (crystalline calcium phosphate formation) represents an in vitro model of bone formation. […] Following the protocol described in Li et al., Compounds were assayed for their ability to rescue the inhibition of mineralization by sclerostin in MC3T3 osteoblast cells.

MC3T3 osteoblast cells = assay: Osteocalcin (OCN) secretion, bone formation marker, ELISA; type: cell-based, mouse; details: Mus musculus; IC100 class; OCN secreted from MC3T3 osteoblast cells treated with sclerostin
Description: Bone formation can also be assayed in vitro or in vivo using a serum marker for bone formation, osteocalcin (OCN), available from Biomedical Tecnhnologies, Inc. (Stoughton, Mass.). Following the manufacturer's protocol for the mouse osteocalcin EIA kit (described at the website www.btiinc.com/page/cata2.html#mouse_osteocalcin), bone formation in MC3T3 osteoblast cells was assayed by measuring the concentration of OCN.

T2 sequence (Q12809 whole entry): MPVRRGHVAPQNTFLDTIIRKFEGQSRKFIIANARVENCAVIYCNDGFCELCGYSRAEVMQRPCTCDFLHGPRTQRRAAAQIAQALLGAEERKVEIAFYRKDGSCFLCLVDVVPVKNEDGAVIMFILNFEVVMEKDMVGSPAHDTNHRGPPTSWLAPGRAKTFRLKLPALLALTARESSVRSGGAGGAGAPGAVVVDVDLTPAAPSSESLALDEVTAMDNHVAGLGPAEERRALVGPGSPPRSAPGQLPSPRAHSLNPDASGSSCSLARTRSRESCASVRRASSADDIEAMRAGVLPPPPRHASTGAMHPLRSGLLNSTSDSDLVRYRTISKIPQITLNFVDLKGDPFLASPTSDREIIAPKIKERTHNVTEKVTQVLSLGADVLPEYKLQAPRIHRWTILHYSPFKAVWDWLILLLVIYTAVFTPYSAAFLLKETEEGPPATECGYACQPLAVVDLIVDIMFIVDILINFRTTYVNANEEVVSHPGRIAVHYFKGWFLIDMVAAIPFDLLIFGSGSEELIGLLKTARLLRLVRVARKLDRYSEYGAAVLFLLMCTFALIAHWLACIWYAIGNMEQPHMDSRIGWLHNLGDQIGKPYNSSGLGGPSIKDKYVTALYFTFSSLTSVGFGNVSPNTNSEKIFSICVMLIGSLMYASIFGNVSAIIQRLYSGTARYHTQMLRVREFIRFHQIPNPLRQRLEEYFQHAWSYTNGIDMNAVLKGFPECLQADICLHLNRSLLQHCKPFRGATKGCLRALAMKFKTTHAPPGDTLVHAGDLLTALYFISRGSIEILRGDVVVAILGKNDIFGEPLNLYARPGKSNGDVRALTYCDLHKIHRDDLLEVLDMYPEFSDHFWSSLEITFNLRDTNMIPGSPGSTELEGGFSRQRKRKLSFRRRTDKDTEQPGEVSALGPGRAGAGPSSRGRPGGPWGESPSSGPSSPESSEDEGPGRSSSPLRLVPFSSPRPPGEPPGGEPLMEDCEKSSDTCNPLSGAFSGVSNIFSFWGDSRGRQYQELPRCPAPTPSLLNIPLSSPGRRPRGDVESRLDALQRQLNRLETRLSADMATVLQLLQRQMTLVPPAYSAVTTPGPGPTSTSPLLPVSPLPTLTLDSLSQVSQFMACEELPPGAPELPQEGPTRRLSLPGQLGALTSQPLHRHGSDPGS

Compound | Sclerostin Inhibition Assay; improvement over sclerostin alone. (sclerostin) | hERG (1uM) (hERG potassium channel) | IC100 [1] [µM] | IC100 (MC3T3 osteoblast cells) [µM]
COc1ccc2c3ccnc(C)c3n(CCCN3CCNCC3)c2c1 [Example 17, 7-methoxy-1-methyl-9-(3-(piperazin-1-yl)propyl)-9H-pyrido[3,4-b]indole trifluoroacetate] | ++ (++ indicates an IC100 < 10 μM) | + (+ indicates less than 50% inhibition of hERG tail current) | < 10 | < 10
COc1ccc2c3ccnc(C)c3n(CCN(C)CCO)c2c1 [Example 18, 2-((2-(7-methoxy-1-methyl-9H-pyrido[3,4-b]indol-9-yl)ethyl)(methyl)amino)ethanol] | ++ (++ indicates an IC100 < 10 μM) | + (+ indicates less than 50% inhibition of hERG tail current) | < 10 | < 10
COc1ccc2c(c1)[nH]c1c(C)[n+]([O-])ccc12 [Example 21, 7-methoxy-1-methyl-9H-pyrido[3,4-b]indole pyridine N-oxide] | + (+ indicates an IC100 > 10 μM) | + (+ indicates less than 50% inhibition of hERG tail current) | > 10 | > 10
COc1ccc2c(c1)[nH]c1c(C(F)(F)F)nccc12 [Example 22, 7-methoxy-1-(trifluoromethyl)-9H-pyrido[3,4-b]indole] | ++ (++ indicates an IC100 < 10 μM) | + (+ indicates less than 50% inhibition of hERG tail current) | < 10 | < 10
COc1ccc2c3ccnc(C(F)(F)F)c3n(CCN3CCOCC3)c2c1 [Example 25, 4-(2-(7-methoxy-1-(trifluoromethyl)-9H-pyrido[3,4-b]indol-9-yl)ethyl) morpholine] | ++ (++ indicates an IC100 < 10 μM) | + (+ indicates less than 50% inhibition of hERG tail current) | < 10 | < 10
COc1ccc2c3ccnc(C(F)(F)F)c3n(CC(C)N(C)C)c2c1 (stereo not shown) [Example 27, 1-(7-methoxy-1-(trifluoromethyl)-9H-pyrido[3,4-b]indol-9-yl)-N,N-dimethylpropan-2-amine] | ++ (++ indicates an IC100 < 10 μM) | + (+ indicates less than 50% inhibition of hERG tail current) | < 10 | < 10
CC1(C)COCCN1CCn1c2cc(O)ccc2c2ccnc(C(F)(F)F)c21 [Example 32, 9-(2-(3,3-dimethylmorpholino)ethyl)-1-(trifluoromethyl)-9H-pyrido[3,4-b]indol-7-ol] | ++ (++ indicates an IC100 < 10 μM) | + (+ indicates less than 50% inhibition of hERG tail current) | < 10 | < 10
COc1ccc2c3ccnc(C(F)(F)F)c3n(CCN(CCO)CCO)c2c1 [Example 35, 2,2′-((2-(7-methoxy-1-(trifluoromethyl)-9H-pyrido[3,4-b]indol-9-yl)ethyl)azanediyl)diethanol] | ++ (++ indicates an IC100 < 10 μM) | + (+ indicates less than 50% inhibition of hERG tail current) | < 10 | < 10
COc1ccc2c(c1)[nH]c1c(C)ccnc12 [Example 37, 7-methoxy-4-methyl-5H-pyrido[3,2-b]indole] | ++ (++ indicates an IC100 < 10 μM) | + (+ indicates less than 50% inhibition of hERG tail current) | < 10 | < 10
COc1ccc2c(c1)[nH]c1c(C)nc(OC)cc12 [Example 40, 3,7-dimethoxy-1-methyl-9H-pyrido[3,4-b]indole] | ++ (++ indicates an IC100 < 10 μM) | + (+ indicates less than 50% inhibition of hERG tail current) | < 10 | < 10
